Consider 7 compounds from patent US6849634B2, “Potassium channel inhibitors” (ICAgen, priority 2000, dated 2005).

The target in the assay is T1, Kv1.5 (Homo sapiens, UniProt P22460).
T1 construct: expressed in transfected cells; host or cells: CHO cells
T1 sequence (P22460 whole entry): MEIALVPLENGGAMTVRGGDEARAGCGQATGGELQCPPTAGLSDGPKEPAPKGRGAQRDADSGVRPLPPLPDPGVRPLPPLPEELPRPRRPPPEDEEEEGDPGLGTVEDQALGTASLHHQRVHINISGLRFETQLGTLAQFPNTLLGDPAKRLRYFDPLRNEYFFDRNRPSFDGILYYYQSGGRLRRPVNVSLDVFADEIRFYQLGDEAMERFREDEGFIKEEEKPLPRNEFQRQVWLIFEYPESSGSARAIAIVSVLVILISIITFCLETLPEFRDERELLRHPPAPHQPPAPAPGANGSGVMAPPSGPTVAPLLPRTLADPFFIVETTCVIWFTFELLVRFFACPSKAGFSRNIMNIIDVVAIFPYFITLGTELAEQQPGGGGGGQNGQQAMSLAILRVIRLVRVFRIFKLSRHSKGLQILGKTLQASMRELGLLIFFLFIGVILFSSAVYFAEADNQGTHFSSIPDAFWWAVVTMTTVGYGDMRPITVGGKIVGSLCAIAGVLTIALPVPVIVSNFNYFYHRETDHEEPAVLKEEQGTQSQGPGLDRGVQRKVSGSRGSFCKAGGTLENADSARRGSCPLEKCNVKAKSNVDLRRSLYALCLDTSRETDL
Description: Kv1.5 inhibition by patch clamp technique. It is filed as cell-based. The note with it: inhibitors of Kv1.5. The source says:
The pharmacological profile of the potassium channel inhibitory activity of the compounds of the present invention can be readily assessed by those skilled in the art using routine experimentation, such as the procedures and techniques illustrated in the examples which follow. Assays for assessing the activity of particular compounds may employ cells stably transfected to express a specific potassium channel, as well as native mammalian cells. In particular, stable transfected cells, transfected to express a specific potassium channel, which have been treated with a voltage dependent fluorescent dye, such as bis-(1,3-dibutylbarbituric acid) trimethine oxonol, can be used to gauge the inhibitory activity of potassium channel inhibitor compounds, possibly in comparison to known inhibitors. Alternatively, such cells can be primed with a detectible species, such as 86Rb, and then challenged with a particular compound, under conditions otherwise suitable for activating the potassium channel, to assess the potassium inhibitory activity of the compound. The potassium channel inhibitory activity of a compound also can be determined using isolated mammalian cells and the whole cell configuration of the known patch clamp technique (Hamill et al., Pflugers Archiv 391:85, 1981). These and other known techniques can be readily employed by those skilled in the art to assess the activity level of the potassium channel inhibitor compounds of the present invention.
The cloning, construction and testing of CHO cells that express human voltage-gate potassium channels are described in prior U.S. patent application Ser. No. 08/893,160 (published as WO 98/04521, see also U.S. Pat. No. 6,083,986), as are assays for measuring ^86rubidium efflux from cell monolayers; fluorescence measurement of cell membrane potential; electrophysiological studies and lymphocyte proliferation studies, all of which are incorporated herein by reference.
The efficacy of various compounds of the present invention as inhibitors of Kv1.5 are shown in Table 2 (using the known patch clamp techniques cited above and described in detail in WO 98/04521 (see also U.S. Pat. No. 6,083,986), the disclosure of which is incorporated herein by reference)
In general terms: Patch clamp records ionic current or voltage across a cell membrane.
The term inhibition denotes the relative decrease from the control value, in per cent. Low values mean a response near the control, high ones a response far below the control. `CCc1ccc(S(=O)(=O)NC2CCc3ccc(Nc4ncccc4C(=O)NCc4ccco4)cc32)cc1` (stereo not shown) [Compound 42] yielded an inhibition at 0.1 µM of 45%. With `O=C(NCCc1ccccc1)c1cccnc1Nc1ccc2c(c1)C(NS(=O)(=O)c1ccc(F)cc1)CC2` (stereo not shown) [Compound 58], the inhibition at 0.1 µM turned out to be 27%.

Regarding `CCCNC(=O)c1cccnc1Nc1ccc2c(c1)C(NS(=O)(=O)c1ccc(CC)cc1)CC2` (stereo not shown) [Compound 37], testing at 0.1 µM gave an inhibition of 35%. `C=CCNC(=O)c1cccnc1Nc1ccc2c(c1)C(NS(=O)(=O)c1ccc(CC)cc1)CC2` (stereo not shown) [Compound 26]: the inhibition at 0.1 µM came to 38%. With `CCc1ccc(S(=O)(=O)NC2CCc3ccc(Nc4ncccc4NC(=O)CCc4ccccc4)cc32)cc1` (stereo not shown) [Compound 1] the figure was 46%; with `O=C(NCc1cccs1)c1cccnc1Nc1ccc2c(c1)C(NS(=O)(=O)c1ccc(F)cc1)CC2` (stereo not shown) [Compound 59], 20%. The figure for `C#CCNC(=O)c1cccnc1Nc1ccc2c(c1)C(NS(=O)(=O)c1ccc(CC)cc1)CC2` (stereo not shown) [Compound 27] is 43%.
